Values quoted from earlier work as cited in patent US20060257483A1, “Controlled release bupropion dosage forms” (ABRIKA Pharmaceuticals, priority 2005, published 2006).
Structures can show the parent of a compound that is named as a salt.

Conditions: powder

- solubility in water: highly soluble in water
SMILES: CC(NC(C)(C)C)C(=O)c1cccc(Cl)c1 (stereo not shown) [bupropion hydrochloride]
